Assay results reported in patent publication US20110053964A1, “4-AMINOQUINAZOLINE DERIVATIVES AND METHODS OF USE THEREOF” (priority 2006, published 2011).

Experiments:
[1] = Pharmacokinetics in rats, intravenous; format: in vivo, Sprague-Dawley rats; details: rat, single intravenous bolus 2 mg/kg; for half-life compared to lapatinib: tosylate salt (FIGS. 2 and 3)
Description: Rats were anesthetized using pentobarbital (IP 40 mg/kg) prior to administration of compound. […] The rats were administered a single bolus 2 mg/kg dose of compound via jugular cannula, followed by a wash-out with saline. Blood samples (0.25 mL) were taken from the jugular at 5, 15 and 30 minutes and at 1, 2, 4, 6, 9, 12, and 24 hours post-dosing. Blood samples were centrifuged within 15 minutes of removal from the animal, centrifuged, and the plasma fraction removed and stored at −20° C. until analysis. Samples were analyzed by LC-MS.

[2] = Pharmacokinetics in rats, oral dosing; details: rat, oral dosing 20 mg/kg, tosylate salt; data not shown

Compound | half-life compared to lapatinib [1] | half life compared to lapatinib [2] | half-life ([1]; Sprague-Dawley, tosylate salt, plasma)
Cc1ccc(S(=O)(=O)O)cc1.Cc1ccc(S(=O)(=O)O)cc1.[2H]C([2H])(CS(C)(=O)=O)NC([2H])([2H])c1ccc(-c2ccc3ncnc(Nc4ccc(OCc5cccc(F)c5)c(Cl)c4)c3c2)o1 [Compound 101, [3-Chloro-4-(3-fluorobenzyloxy)phenyl]-(6-{5-[(2-methanesulfonyl-1,1-d2-ethylamino)-d2-methyl]-furan-2-yl}-quinazolin-4-yl)amine di-tosylate] | significantly longer half-lives than lapatinib | longer half lives than lapatinib | –
Cc1ccc(S(=O)(=O)O)cc1.Cc1ccc(S(=O)(=O)O)cc1.[2H]C([2H])(NC([2H])([2H])C([2H])([2H])S(=O)(=O)C([2H])([2H])[2H])c1ccc(-c2ccc3ncnc(Nc4ccc(OCc5cccc(F)c5)c(Cl)c4)c3c2)o1 [Compound 102, [3-Chloro-4-(3-fluoro-benzyloxy)-phenyl]-(6-{5-[(2-d3-methanesulfonyl-1,1,2,2-4-ethylamino)-d2-methyl]-furan-2-yl}-quinazolin-4-yl)amine di-tosylate] | significantly longer half-lives than lapatinib | longer half lives than lapatinib | –
CS(=O)(=O)CCNCc1ccc(-c2ccc3ncnc(Nc4ccc(OCc5cccc(F)c5)c(Cl)c4)c3c2)o1.Cc1ccc(S(=O)(=O)O)cc1 [Lapatinib, [3-Chloro-4-(3-fluorobenzyloxy)phenyl](6-{5-[(2-methanesulfonylethylamino)-methyl]furan-2-yl}-quinazolin-4-yl)amine 4-toluenesulfonate salt, reference compound] | – | – | 1 ± 0.05 h
